Assay type in all cases: cell-based
One assay has as its system IL-13. Description: Allergen-driven cytokine assay using fresh human PBMCs from atopic volunteers (IL-13). The note with it: PBMC, PBMCs from at least two allergic donors, 10 μg/ml Timothy grass antigen, compared to the allergen control, read-out: concentration at which ≧50% reduction of IL-13 production observed. The protocol: (§1) Allergen-Driven Cytokine Assay Using Fresh Human Peripheral Blood Mononuclear Cells (PBMCs) from Atopic Volunteers
(§2) An assay based on co-culture of atopic human donor derived peripheral blood mononuclear cells (PBMCs) with allergen and test compounds was developed. After 5-6 days culture, cell supernatants were assayed for a range of cytokines.
(§3) Compounds were dissolved in DMSO, then serially diluted in growth medium (RPMI 1640 medium supplemented with 100 U/ml penicillin G, 100 μg/ml streptomycin, 10 mM L-glutamine) to give 4× the required concentration range in the presence of 0.04% DMSO. Each compound was assayed in triplicate at all concentrations.
(§4) Defibrinated human blood from volunteers known to be allergic to Timothy grass was centrifuged at 2500 rpm for 15 minutes. The upper layer of serum was collected and heat-inactivated at 56° C. for 30 minutes (HI-autologous serum). The lower layer of cells was resuspended in 50 ml PBS (+Ca +Mg), 25 ml diluted blood were overlaid onto 20 ml Lymphoprep in 50 ml tubes then centrifuged at 2500 rpm for 20 minutes at RT. The band at the serum/Lymphoprep interface was carefully removed. The collected cells were washed with PBS and re-suspended at 4×10^6/ml in growth medium with HI-autologous serum. PBMCs were seeded at 0.4×10^6 cells/well in flat-bottomed 96 well plates in the presence of 10 μg/ml Timothy grass antigen (Alk Abello) and test compounds at appropriate concentrations in a total volume of 200 ul.
(§5) Plates were incubated at 37° C. in 5% CO2 for up to 6 days. The cell medium from each well was harvested and stored at −20° C. prior to analysis. Cytokines and chemokines in supernatants were detected using Meso Scale Discovery 10 spot plates for Human TH1/Th2 cytokines.

Assay [1] concerns Interferon-α. Description: Induction of Interferon-α using fresh human PBMCs. The following applies: PBMC, 24 hr incubation, relative to 2 μM resiquimod control, read-out: mean pEC50 for induction of IFN-α (converted). The protocol: (§6) Assay for the Induction of Interferon-α and TNF-α Using Fresh Human Peripheral Blood Mononuclear Cells (PBMCs)
(§7) Compounds were dissolved and serially diluted in DMSO to give 100× the required concentration range using a Biomek 2000. 1 ul of test compound was transferred into 96-well tissue culture plates using a Biomek FX. Each compound was assayed in duplicate for each donor. Each plate contained a dilution series of the TLR7/8 agonist resiquimod as standard and Column 11 contained 1 μl of 200 μM resiquimod (giving a 2 μM final concentration, used to define the approximate maximal response to resiquimod).
(§8) Blood samples from two human donors were collected into sodium heparin (10 U/ml). 25 ml volumes of whole blood were overlaid onto 15 mls Histopaque in Leucosep tubes which were centrifuged at 800 g for 20 min and the band at the plasma/histopaque interface carefully removed. The collected cells were centrifuged at 2500 rpm for 10 min. and the pellet resuspended in 10 ml of media (RPMI 1640 (Low endotoxin) supplemented with 10% v/v foetal calf serum (FCS, low endotoxin) 100 U/ml penicillin G, 100 μg/ml streptomycin, 10 mM L-glutamine and 1× non-essential amino acids). A 1:20 dilution of the cells was prepared using trypan blue & the cells counted using a haemocytometer. The PBMCs were diluted to give a final concentration of 2×10^6/ml and 100 ul of this cells suspension was added to wells containing 1 μl of diluted test compound.
(§9) The cell preparations were incubated for 24 hr. (37° C., 95% air, 5% CO2) after which a sample of the supernatant was removed using the Biomek FX and assayed for both IFN-α and TNF-α using the MSD (Mesoscale Discovery) electrochemiluminescence assay platform. The IFN-α assay was carried out similarly to that described above. The TNF-α assay was carried out as per kit instructions (Cat No K111BHB).
(§10) Cytokine released was expressed as a percentage of the 2 μM resiquimod control (column 11). This percentage was plotted against compound concentration and the pEC50 for the response determined by non-linear least squares curve fitting. For the IFN-α responses generally a 4 parameter logistic model was selected. For the TNF responses where a clear maximum response was obtained (i.e. a well defined plateau in the response was observed) then a 4 parameter model was generally used. If the upper asymptote of the curve wasn't well defined then the curve fitting was generally constrained to a maximal response of 100% (i.e., to the response to 2 μM resiquimod) or to the response of the highest concentration tested if this was greater than the resiquimod response. Some curves were bell shaped for one or both cytokines and the cytokine data on the down slope of the bell shaped response (i.e. concentrations above those giving the maximal response) were generally excluded from the fit, usually with the exception of the concentration immediately above the peak response. Curve fitting thus concentrated on the up slope of the dose response curve.

In another assay the test system is IL-5. Description: Allergen-driven cytokine assay using fresh human PBMCs from atopic volunteers (IL-5). The following applies: PBMC, PBMCs from at least two allergic donors, 10 μg/ml Timothy grass antigen, compared to the allergen control, read-out: concentration at which ≧50% reduction of IL-5 production observed. The protocol: as §1, §2, §3, §4, §5
The subject of a further assay is TNF-α. Description: Induction of TNF-α using fresh human PBMCs. The note with it: PBMC, 24 hr incubation, relative to 2 μM resiquimod control, read-out: mean pEC50 for induction of TNF-α (converted). The procedure:
as §6, §7, §8, §9, §10

Assay [2] has as its system Interferon-α. Description: Induction of Interferon-α using cryopreserved human PBMCs. The following applies: PBMC, 24 h incubation, normalised to 1 uM resiquimod, read-out: mean pEC50 for induction of IFN-α (converted). The method in brief: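 Cryopreserved healthy-donor PBMCs at 1×10^6 cells/ml in RPMI/10% FCS with 1000 units/ml IFN-gamma, exposed 24 h at 37 °C to 11-point two-fold compound dilutions. Supernatant IFN-α quantified by MSD electrochemiluminescence immunoassay; pEC50 from 4-parameter fit, normalised to 1 uM resiquimod and DMSO.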

Regarding `CCCCOc1nc(N)c2[nH]c(=O)n(CCC3CCN(CC)CC3)c2n1` [Example 8], the figures for the IC50 in the assay on IL-13 and with IL-5 were not above 40 nM and not above 8 nM, respectively. In addition, the EC50 in the assay on Interferon-α [1] was less than 100 nM; with TNF-α, more than 1000 nM; in the assay on Interferon-α [2] it was less than 1580 nM.

Consider `CCCCOc1nc(N)c2[nH]c(=O)n(CCCC3CCN(CC)CC3)c2n1` [Example 9], for which the IC50 in the assay with IL-13 is not above 40 nM; with IL-5, not above 8 nM. The values for the EC50 in the assay with Interferon-α [1], in the assay with TNF-α and in the assay on Interferon-α [2] were less than 10 nM, more than 1000 nM and less than 1580 nM, respectively.

`CCCCOc1nc(N)c2[nH]c(=O)n(CCCCC3CCN(CC)CC3)c2n1` [Example 10, 6-Amino-2-(butyloxy)-9-[4-(1-ethyl-4-piperidinyl)butyl]-7,9-dihydro-8H-purin-8-one]: the IC50 in the assay on IL-13 is not above 40 nM; in the assay with IL-5 it was not above 8 nM. Moreover, the EC50 in the assay with Interferon-α [1] was less than 10 nM; in the assay with TNF-α, more than 1000 nM; with Interferon-α [2], less than 1580 nM.

With `CCC[C@H](C)Oc1nc(N)c2[nH]c(=O)n(CCC3CCN(C(C)C)CC3)c2n1` [Example 92, 6-Amino-2-{[(1S)-1-methylbutyl]oxy}-9-{2-[1-(1-methylethyl)-4-piperidinyl]ethyl}-7,9-dihydro-8H-purin-8-one], the IC50 is not above 40 nM in the assay on IL-13 and not above 8 nM in the assay with IL-5. The results for the EC50 with Interferon-α [1], with TNF-α and with Interferon-α [2] were less than 10 nM, more than 1000 nM and less than 1580 nM, respectively.

`CCCCOc1nc(N)c2[nH]c(=O)n(CCCCCC3CCNCC3)c2n1` [Example 122, 6-Amino-2-(butyloxy)-9-[5-(4-piperidinyl)pentyl]-7,9-dihydro-8H-purin-8-one]: the values for the EC50 with Interferon-α [1], in the assay on TNF-α and in the assay with Interferon-α [2] were less than 0.316 nM, more than 31.6 nM and less than 1580 nM, respectively.

Consider `CC(C)Oc1nc(N)c2[nH]c(=O)n(CCCCC3CCNCC3)c2n1` [Example 135, 6-Amino-2-[(1-methylethyl)oxy]-9-[4-(4-piperidinyl)butyl]-7,9-dihydro-8H-purin-8-one], for which the EC50 with Interferon-α [1] was less than 100 nM; with TNF-α, more than 1000 nM; with Interferon-α [2] it was less than 1580 nM.

(Values after patent US8563717B2, “Adenine derivatives” (GlaxoSmithKline LLC, priority 2008, dated 2013).)
